In PMC9490236, “Accurate de novo design of membrane-traversing macrocycles” (Cell, 2022):
Where a SMILES comes first, the peptide text is derived from it. [ ]: non-standard residue; d: D form. dNMeI = CC[C@@H](C)[C@@H](NC)C(=O)O; NMeL = CN[C@@H](CC(C)C)C(=O)O; Sar = CNCC(=O)O

Assays:
[1] = Caco-2 permeability assay (apical to basolateral); type: in vitro ADME, human; details: for Papp A→B: Caco-2, Caco_Papp_Average
Outline: (§1)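 Caco-2 monolayers were grown on 0.4 μm Transwell inserts for 6 days. Peptides were applied apically at 50 μM with HBSS basolaterally and incubated 90 min at 37°C with shaking.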

Caco-2 cells = assay: Caco-2 permeability assay (apical to basolateral); type: in vitro ADME, human; details: Caco-2
Outline: as §1

[2] = PAMPA
in vitro = details: PAMPA, PAMPA_Papp_Avg

Row | SMILES | Papp A→B [1] | Caco_R1 (Caco-2 cells) | Caco_R3 (Caco-2 cells) | PAMPA_R1 [2] | PAMPA_R3 [2] | Papp (in vitro) | Papp ([1]; Caco-2)
1 | CC[C@@H](C)[C@H]1NC(=O)[C@@H]2CCCN2C(=O)[C@@H]([C@H](C)CC)NC(=O)CN(C)C(=O)[C@H](CC(C)C)NC(=O)[C@@H](Cc2ccccc2)NC(=O)[C@H](CC(C)C)N(C)C(=O)[C@H]2CCCN2C(=O)[C@@H](CC(C)C)NC(=O)[C@H](CC(C)C)NC(=O)[C@H]2CCCN2C1=O [Design D11.2, DILE DPRO LEU DLEU DPRO *LEU DPHE LEU *GLY DILE PRO] (cyclo(L[Sar][dI]P[dI][dP]L[dL][dP][NMeL][dF])) | 2.82 ×10⁻⁶ cm/s | 1.94 | 2.65 | 1.82E-06 | 2.50E-06 | 2.15 ×10⁻⁶ cm/s | –
2 | CC[C@@H](C)[C@H]1NC(=O)[C@H]([C@@H](C)CC)NC(=O)[C@H](CC(C)C)N(C)C(=O)[C@H]2CCCN2C(=O)[C@@H]([C@H](C)CC)NC(=O)[C@@H]([C@H](C)CC)N(C)C(=O)[C@H](CC(C)C)NC(=O)[C@H]2CCCN2C(=O)[C@@H]2CCCN2C(=O)[C@H](C(C)C)NC(=O)[C@H]2CCCN2C1=O [Design D11.3, VAL PRO DPRO LEU *DILE DILE DPRO *LEU ILE DILE DPRO] (cyclo(I[dI][dP]VP[dP]L[dNMeI][dI][dP][NMeL])) | 9.11 ×10⁻⁶ cm/s | 7.29 | 11.26 | 1.91E-06 | 1.10E-06 | 1.48 ×10⁻⁶ cm/s | 9.11 ×10⁻⁶ cm/s
